For one test, the target named is HRAS wild-type protein (Homo sapiens, UniProt P01112). Briefly: Binding to HRAS by surface plasmon resonance (SPR), KD and KD ratio to KRAS. Summed up: (§1)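 Running buffer contained 10 µM GDP and 10 mM MgCl2 to keep RAS in the GDP state, with 4% DMSO at pH 7.4. Compounds were flowed at 100 µL/min in 75 s steps of rising concentration over captured biotin-Avi RAS at 30°C. Sensorgrams were fitted 1:1 for KD.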
In general terms: SPR reads the build-up and loss of mass on a sensor chip optically.

For test [1], the target named is GDP-bound NRAS wild-type protein (Homo sapiens, UniProt P01111). Nature of the test: Binding to NRAS by surface plasmon resonance (SPR), KD and KD ratio to KRAS. Summed up: as §1
Test [2] relates to human lung cancer strain NCI-H441. It counts as cell-based. In short, it runs like this:
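Step one: dispense the test compound in serial DMSO dilutions. Step three: add the reagent and measure […].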

[3] abbreviates: ratio of KD value for HRAS wild-type protein to KD value for KRAS (SPR).
The mark [4] stands for this setting: ratio of KD value for GDP-bound NRAS wild-type protein to KD value for KRAS (SPR).
[5] abbreviates: ratio of the KD value with respect to HRAS wild-type protein to the KD value with respect to KRAS.
Setting [6] is: ratio of the KD value with respect to GDP-bound NRAS wild-type protein to the KD value with respect to KRAS.

Where a SMILES comes first, the peptide text is derived from it. Bridges are numbered along the chain shown (N, C = ends). [ ]: non-standard residue; d: D form. The star is where a group is joined. hPhe(3-Cl-4-CF3) = N[C@@H](CCc1ccc(C(F)(F)F)c(Cl)c1)C(=O)O; NPrPhe(4-CF3) = CCCN[C@@H](Cc1ccc(C(F)(F)F)cc1)C(=O)O; NMeGly(cPent) = CN[C@H](C(=O)O)C1CCCC1; Hyp = O=C(O)[C@@H]1C[C@@H](O)CN1; NMeD = CN[C@@H](CC(=O)O)C(=O)O; NMeL = CN[C@@H](CC(C)C)C(=O)O; Morpholide = C1CN(*)CCO1; NMeA = CN[C@@H](C)C(=O)O; Ac5c = NC1(C(=O)O)CCCC1; Aze = O=C(O)[C@@H]1CCN1; Sar = CNCC(=O)O

The IC50 is the point on the concentration scale where inhibition reaches its midpoint. High values mean lower potency, low ones higher potency.

HRAS wild-type protein, sequence (P01112 whole entry): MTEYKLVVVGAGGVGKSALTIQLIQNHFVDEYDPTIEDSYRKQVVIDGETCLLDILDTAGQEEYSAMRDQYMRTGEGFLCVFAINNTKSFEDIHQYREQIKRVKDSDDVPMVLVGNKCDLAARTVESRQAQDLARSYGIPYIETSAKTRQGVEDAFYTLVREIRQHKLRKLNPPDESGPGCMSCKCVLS
GDP-bound NRAS wild-type protein, sequence (P01111 whole entry): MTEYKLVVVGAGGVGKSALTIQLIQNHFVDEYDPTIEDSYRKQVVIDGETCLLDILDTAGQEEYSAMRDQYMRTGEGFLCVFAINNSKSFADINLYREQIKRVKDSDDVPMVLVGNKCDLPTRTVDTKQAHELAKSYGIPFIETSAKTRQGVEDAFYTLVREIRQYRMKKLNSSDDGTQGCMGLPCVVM

With `CCO[C@@H]1C[C@H]2C(=O)NC3(CCC3)C(=O)N(C)[C@@H](C3CCCC3)C(=O)N(C)[C@H](C(=O)N(C)CC)CC(=O)N(C)[C@@H](CC)C(=O)N[C@@H]([C@@H](C)CC)C(=O)N(C)CC(=O)N(C)[C@H]3C/C=C\CCN(C3=O)[C@@H](CC3CCCCC3)C(=O)N(C)CC(=O)N[C@@H](CCc3cc(F)c(C(F)(F)F)c(F)c3)C(=O)N2C1` [PP1552], the “HRAS /KRAS” value on HRAS wild-type protein (setting [3]) is “A (a compound having 10 or more and less than 20 is denoted as A)”. The “NRAS /KRAS” value in test [1] (setting [4]) was “A (a compound having 10 or more and less than 20 is denoted as A)”. This molecule also yielded an IC50 in test [2] of 15.9 nM.

For `C#CC[C@H]1C(=O)N[C@@H]([C@@H](C)CC)C(=O)N(C)CC(=O)N(C)[C@H]2C/C=C\CCN(C2=O)[C@@H](Cc2ccc(C(F)(F)F)cc2)C(=O)N(C)CC(=O)N[C@@H](CCc2cc(F)c(C(F)(F)F)c(F)c2)C(=O)N2C[C@@H](C)C[C@H]2C(=O)NC2(CC(C)(C)C2)C(=O)N(C)[C@@H](C2CCCC2)C(=O)N(C)[C@H](C(=O)N(C)CCC)CC(=O)N1C` [PP2076], at HRAS wild-type protein (setting [5]), the “HRAS /KRAS” value was “A (a compound having 10 or more and less than 20 is denoted as A)”. Further, in test [1] (setting [6]), the “NRAS /KRAS” value is “A (a compound having 10 or more and less than 20 is denoted as A)”. In test [2], this molecule returned an IC50 of 15.6 nM.

Regarding `CCO[C@@H]1C[C@H]2C(=O)NC3(CCC3)C(=O)N(C)[C@@H](C3CCCC3)C(=O)N(C)[C@H](C(=O)N(C)CC)CC(=O)N(C)[C@@H](C3CCC3)C(=O)N[C@@H]([C@@H](C)CC)C(=O)N(C)CC(=O)N(C)[C@H]3C/C=C\CCN(C3=O)[C@@H](Cc3ccc(C(F)(F)F)cc3)C(=O)N(C)CC(=O)N[C@@H](CCc3cc(F)c(C(F)(F)F)c(F)c3)C(=O)N2C1` [PP1996], the “HRAS /KRAS” value at HRAS wild-type protein (setting [5]) is “B (a compound having 3 or more and less than 10 is denoted as B)”. For the same molecule, the “NRAS /KRAS” value in test [1] (setting [6]) is “A (a compound having 10 or more and less than 20 is denoted as A)”. The molecule also came in with an IC50 in test [2] of 15.5 nM.

`CCCN1C(=O)[C@@H]2CCN2C(=O)[C@H](C)N(C)C(=O)[C@H]([C@@H](C)CC)NC(=O)[C@H](CC(C)C)N(C)C(=O)C[C@@H](C(=O)N2CCOCC2)N(C)C(=O)[C@H](C2CCCC2)N(C)C(=O)C2(CCCC2)NC(=O)[C@@H]2C[C@@H](OC)CN2C(=O)[C@H](CCc2ccc(C(F)(F)F)c(Cl)c2)NC(=O)CN(C)C(=O)[C@@H]1Cc1ccc(C(F)(F)F)cc1` [PP0283] ([NMeL]I[NMeA][Aze][NPrPhe(4-CF3)][Sar][hPhe(3-Cl-4-CF3)][Hyp](Me)[Ac5c][NMeGly(cPent)][NMeD]-Morpholide; lactam N-11): the “HRAS /KRAS” value at HRAS wild-type protein (ratio of KD for HRAS wild-type protein to KD for KRAS) is “C (A compound having a KD ratio of 0.1 or more and less than 3 is denoted as C)”. In addition, in test [1] (ratio of KD for GDP-bound NRAS wild-type protein to KD for KRAS), the “NRAS /KRAS” value was “C (A compound having a KD ratio of 0.1 or more and less than 3 is denoted as C)”. Also, the IC50 in test [2] turned out to be 1.9 nM.

Regarding `CCCC[C@H]1C(=O)N[C@@H]([C@@H](C)CC)C(=O)N(C)CC(=O)N(C)[C@H]2C/C=C\CCN(C2=O)[C@@H](Cc2ccc(C(F)(F)F)cc2)C(=O)N(C)CC(=O)N[C@@H](CCc2cc(F)c(C(F)(F)F)c(F)c2)C(=O)N2C[C@H](OCC)C[C@H]2C(=O)NC2(CC(C)(C)C2)C(=O)N(C)[C@@H](C2CCCC2)C(=O)N(C)[C@H](C(=O)N(C)C)CC(=O)N1C` [PP1649], the “HRAS /KRAS” value at HRAS wild-type protein (setting [3]) is “B (a compound having 3 or more and less than 10 is denoted as B)”. For the same molecule, in test [1] (setting [4]), the “NRAS /KRAS” value is “A (a compound having 10 or more and less than 20 is denoted as A)”. The molecule also showed an IC50 in test [2] of 2.2 nM.

With `CCCN(C)C(=O)[C@@H]1CC(=O)N(C)[C@@H](CC(F)F)C(=O)N[C@@H]([C@@H](C)CC)C(=O)N(C)CC(=O)N(C)[C@H]2C/C=C\CCN(C2=O)[C@@H](Cc2ccc(C(F)(F)F)cc2)C(=O)N(C)CC(=O)N[C@@H](CCc2ccc(C(F)(F)F)c(OC)c2)C(=O)N2C[C@H](OCC)C[C@H]2C(=O)NC2(CC(C)(C)C2)C(=O)N(C)[C@@H](C2CCCC2)C(=O)N1C` [PP2010], at HRAS wild-type protein (setting [5]), the “HRAS /KRAS” value is “B (a compound having 3 or more and less than 10 is denoted as B)”. Further, in test [1] (setting [6]), the “NRAS /KRAS” value is “A (a compound having 10 or more and less than 20 is denoted as A)”. Moreover, the IC50 in test [2] was found to be 6.6 nM.

(Values after patent publication EP4603105A1, “PHARMACEUTICAL COMPOSITION CONTAINING CYCLIC COMPOUND HAVING SELECTIVE KRAS INHIBITORY EFFECT AGAINST HRAS AND NRAS” (CHUGAI SEIYAKU KABUSHIKI KAISHA, priority 2022, dated 2024).)
